{"source": "patent US20140163082A1", "about": "“PYRAZOLYL COMPOUNDS FOR USE IN REVERSING REACTIVE GLIOSIS” (priority 2011, published 2014)", "key": {"R28 cells": {"tested_on": "R28 cells", "experiment": "Viability assay (DAPI exclusion test), R28", "conditions": "R28 cells in culture after incubation"}, "rMC-1 cells": {"tested_on": "rMC-1 cells", "experiment": "Viability assay (DAPI exclusion test), rMC-1", "conditions": "rMC-1 cells in culture after incubation"}}, "data": [{"smiles": "COc1cccc2c1C(=O)c1c(O)c3c(c(O)c1C2=O)C[C@@](O)(C(=O)CO)C[C@@H]3O[C@H]1C[C@H](N)[C@H](O)[C@H](C)O1", "note": "[Doxorubicin]", "values": [{"measurement": "cell viability (DAPI exclusion)", "setting": "R28 cells", "value": "significant nonviability staining"}, {"measurement": "cell viability (DAPI exclusion)", "setting": "rMC-1 cells", "value": "significant nonviability staining"}]}]}
